13 compounds from publication PMC8625619, “Carbonic Anhydrase Inhibition with Sulfonamides Incorporating Pyrazole- and Pyridazinecarboxamide Moieties Provides Examples of Isoform-Selective Inhibitors” (Molecules, 2021) can be followed below.

Structures are written as SMILES.

Data set [1] deals with hCA II (Homo sapiens, UniProt P00918). Briefly: stopped flow CO2 hydrase assay, hCA II.
Description: (§1) An Applied Photophysics stopped-flow instrument was used for assaying the CA-catalyzed CO2 hydration activity [50]. […] However, the background activity from the uncatalyzed reaction was always subtracted when IC50 values were obtained by using the data analysis software for the stopped-flow instrument. […] The uncatalyzed rates were determined in the same manner and subtracted from the total observed rates. Stock solutions of the inhibitor (0.1 mM) were prepared in distilled–deionized water, and dilutions up to 0.01 nM were performed thereafter with the assay buffer. Inhibitor and enzyme solutions were preincubated together for 15 min at room temperature prior to the assay, to allow for the formation of the E–I complex. The inhibition constants were obtained by nonlinear least-squares methods using PRISM 3 and the Cheng–Prusoff equation as reported earlier and represented the mean from at least three different determinations. All CA isoforms were recombinant proteins obtained in-house, as reported earlier [2, 51, 52].
For data set [2], the target named is hCA XII (Homo sapiens, UniProt O43570). The data set can be described thus: stopped flow CO2 hydrase assay, hCA XII.
Description: as §1
Data set [3] has as its target hCA I (Homo sapiens, UniProt P00915). The data set can be described thus: stopped flow CO2 hydrase assay, hCA I.
Description: as §1
In data set [4] the target is hCA IX (Homo sapiens, UniProt Q16790). Briefly: stopped flow CO2 hydrase assay, hCA IX.
Description: as §1

A word on the Ki: it is the dissociation constant of the complex between target and ligand, obtained from inhibition or displacement. A high value points to lower affinity. By melting point is commonly meant the temperature of the solid-liquid transition.

Sequence of hCA XII (O43570 25-354): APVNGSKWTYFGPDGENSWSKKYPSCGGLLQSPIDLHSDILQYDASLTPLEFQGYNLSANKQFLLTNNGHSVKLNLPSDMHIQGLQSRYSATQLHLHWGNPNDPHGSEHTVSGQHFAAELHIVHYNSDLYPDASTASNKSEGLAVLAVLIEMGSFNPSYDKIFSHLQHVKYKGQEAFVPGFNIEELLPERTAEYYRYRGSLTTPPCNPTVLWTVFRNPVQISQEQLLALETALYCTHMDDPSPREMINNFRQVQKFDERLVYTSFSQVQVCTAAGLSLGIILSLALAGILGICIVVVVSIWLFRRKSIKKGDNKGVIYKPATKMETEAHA
Sequence of hCA I (P00915 whole entry): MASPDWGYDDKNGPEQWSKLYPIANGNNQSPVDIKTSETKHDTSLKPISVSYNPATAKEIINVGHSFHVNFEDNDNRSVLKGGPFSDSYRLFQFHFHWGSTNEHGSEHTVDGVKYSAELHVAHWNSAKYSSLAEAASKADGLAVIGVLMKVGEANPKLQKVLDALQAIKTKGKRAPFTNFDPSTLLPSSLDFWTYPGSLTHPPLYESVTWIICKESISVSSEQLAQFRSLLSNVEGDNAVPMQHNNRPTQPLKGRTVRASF

As for `NS(=O)(=O)c1ccc(NC(=O)c2cc(-c3ccccc3O)[nH]n2)cc1` [4a, N-[4-(Aminosulfonyl)phenyl]-3-(2-hydroxyphenyl)-1H-pyrazole-5-carboxamide], the Ki in data set [1] stood at 867 nM; in data set [2] it was 271 nM; in data set [3] it was 3820 nM; in data set [4], 450 nM.
With `Cc1ccc(-c2cc(C(=O)Nc3ccc(S(N)(=O)=O)cc3)[nH]n2)c(O)c1` [4b, N-[4-(Aminosulfonyl)phenyl]-3-(2-hydroxy-4-methylphenyl)-1H-pyrazole-5-carboxamide], the inhibitory constant (Ki) in data set [1] came out at 309 nM; in data set [2], 372 nM; in data set [3], 93.3 nM; in data set [4], 78.9 nM.
The compound `Cc1ccc(O)c(-c2cc(C(=O)Nc3ccc(S(N)(=O)=O)cc3)[nH]n2)c1` [4c, N-[4-(Aminosulfonyl)phenyl]-3-(2-hydroxy-5-methylphenyl)-1H-pyrazole-5-carboxamide] showed a melting point of 297 to 299 °C. This compound returned a Ki in data set [1] of 16.1 nM. In addition, in data set [2], the inhibition constant (Ki) was 250 nM. Moreover, in data set [3], the Ki turned out to be 221 nM. In data set [4], this compound displayed a Ki of 8.5 nM. In addition, the “selectivity index on hCA IX compared to hCA I” value in data set [4] (hCA IX compared to hCA I) amounted to 26. The “selectivity index on hCA IX compared to hCA II” value in data set [4] (hCA IX compared to hCA II) is “two times”.
`NS(=O)(=O)c1ccc(NC(=O)c2cc(-c3cc(Cl)ccc3O)n[nH]2)cc1` [4f, N-[4-(Aminosulfonyl)phenyl]-3-(5-chloro-2-hydroxyphenyl)-1H-pyrazole-5-carboxamide] had a melting point of 302 to 304 °C. Further, the affinity in data set [1] corresponds to a Ki of 37.2 nM. In addition, the affinity in data set [2] corresponds to a Ki of 90.8 nM. This compound also returned a Ki in data set [3] of 155 nM. The affinity in data set [4], expressed as Ki, was 34.2 nM.
`NS(=O)(=O)c1ccc(CCNC(=O)c2cc(-c3ccccc3O)n[nH]2)cc1` [5a, N-{2-[4-(Aminosulfonyl)phenyl]ethyl}-3-(2-hydroxyphenyl)-1H-pyrazole-5-carboxamide] displayed an inhibition constant Ki in data set [3] of 88.1 nM.
Compound `Cc1ccc(-c2cc(C(=O)NCCc3ccc(S(N)(=O)=O)cc3)[nH]n2)c(O)c1` [5b, N-{2-[4-(Aminosulfonyl)phenyl]ethyl}-3-(2-hydroxy-4-methylphenyl)-1H-pyrazole-5-carboxamide] gave a melting point of 254 to 255 °C. In data set [1], the inhibition constant Ki was found to be 16.2 nM. The compound also came in with a Ki in data set [2] of 330 nM. In data set [3], the affinity corresponds to a Ki of 345 nM. Besides, the Ki in data set [4] worked out at 16.1 nM.
The matching figures for `Cc1cc(O)c(-c2cc(C(=O)NCCc3ccc(S(N)(=O)=O)cc3)[nH]n2)cc1C` [5d, N-{2-[4-(Aminosulfonyl)phenyl]ethyl}-3-(2-hydroxy-4,5-dimethylphenyl)-1H-pyrazole-5-carboxamide]: 256 to 258 °C, 25.2 nM, 61.3 nM, 218 nM and 63.5 nM.
Regarding `Cc1cc(C)c(O)c(-c2cc(C(=O)NCCc3ccc(S(N)(=O)=O)cc3)[nH]n2)c1` [5e, N-{2-[4-(Aminosulfonyl)phenyl]ethyl}-3-(2-hydroxy-3,5-dimethylphenyl)-1H-pyrazole-5-carboxamide], the Ki in data set [1] came out at 16.2 nM; in data set [2], 191 nM; in data set [3], 71.4 nM; in data set [4], 52.3 nM.
In the case of `NS(=O)(=O)c1ccc(CCNC(=O)c2cc(-c3cc(Cl)ccc3O)n[nH]2)cc1` [5f, N-{2-[4-(Aminosulfonyl)phenyl]ethyl}-3-(5-chloro-2-hydroxyphenyl)-1H-pyrazole-5-carboxamide], the Ki was 9.1 nM in data set [1], 77.3 nM in data set [2], 2150 nM in data set [3] and 79.4 nM in data set [4]. For the same compound, the “selectivity index (SI) for hCA II towards hCA I” value in data set [1] (hCA II compared to hCA I) turned out to be 236. The “selectivity index (SI) for hCA II compared to hCA IX” value in data set [1] (hCA II compared to hCA IX) worked out at 8.7.
For `NS(=O)(=O)c1ccc(NC(=O)c2nn(-c3ccc(F)cc3)ccc2=O)cc1` [10b, N-[4-(Aminosulfonyl)phenyl]-1-(4-fluorophenyl)-4-oxo-1,4-dihydropyridazine-3-carboxamide], the melting point lay within 313 to 315 °C. In addition, in data set [1], the Ki worked out at 72.5 nM. In data set [2], this compound showed a Ki of 94.8 nM. In addition, the Ki in data set [3] was 481 nM. For the same compound, the Ki in data set [4] was 131 nM.
For `NS(=O)(=O)c1ccc(NC(=O)c2nn(-c3cccc(Cl)c3)ccc2=O)cc1` [10c, N-[4-(Aminosulfonyl)phenyl]-1-(3-chlorophenyl)-4-oxo-1,4-dihydropyridazine-3-carboxamide], in that order: 297 to 299 °C, 76.3 nM, 433 nM, 840 nM and 569 nM.
With `NS(=O)(=O)c1ccc(NC(=O)c2nn(-c3ccc(Cl)cc3)ccc2=O)cc1` [10d, N-[4-(Aminosulfonyl)phenyl]-1-(4-chlorophenyl)-4-oxo-1,4-dihydropyridazine-3-carboxamide], the melting point is 310 to 312 °C. The compound also showed an inhibitory constant (Ki) in data set [1] of 8 nM. This compound also registered a Ki in data set [2] of 65.7 nM. This compound came in with an inhibitory constant (Ki) in data set [3] of 6.2 nM. The compound further had a Ki in data set [4] of 165 nM.
Consider `COc1cc2c(cc1OC)-c1c(c(C(=O)Nc3ccc(S(N)(=O)=O)cc3)nn1C)C2` [compound 15, N-[4-(Aminosulfonyl)phenyl]-6,7-dimethoxy-1-methyl-1,4-dihydroindeno[1,2-c]pyrazole-3-carboxamide], for which the inhibition constant Ki in data set [3] amounted to 726 nM; in data set [4] it was 6.1 nM.
